Experimental data as given in patent US9233915B2, “Polyunsaturated fatty acid monoglycerides, derivatives, and uses thereof” (SCF PHARMA INC., priority 2007, dated 2016).
Each block holds one molecule with its values, some of them ahead of it.

Columns and labels:
[1] = human, in vivo
Experimental: Controlled amount of boiled pasta was eaten after the 4 h time point. An initial blood sample (400 μl) was collected using a lancet at a fingertip into heparin tubes followed by samples at 1, 2, 3, 4, 5, 6, 7 and 8 hour after ingestion. Plasma was separated and immediately analysed for fatty acid composition.
The relative bioavailability of fatty acids from composition 2 compared to fish oil is calculated with the formula:
The AUC (calculates area under the curve for concentration vs. time data) is calculated using linear trapezoidal rule. […] The relative bioavailability of compound 1 and compound 5 is calculated with the same formula:

HCT-116 cells = assay: in vivo tumor xenograft, HCT-116 in CD-1 nude mice; conditions: per os 618 mg/kg daily from the day after the tumor reach; vs control (corn oil)
Experimental: In vivo tumor xenograft experiments. Male and female CD-1 nude mice were obtained from Charles River Laboratories (Montreal, QC, Canada). All studies involving mice were approved by the institutional animal care committee. Human A549 or HCT-116 xenografts were established in 4-week-old CD-1 nude mice. Mice were subcutaneously inoculated with 0.2 ml of a solution of 1×10^6 A549 or HCT-116 cells on the right flank. Mice were randomly assigned into 2 groups, control (untreated) and compound 1, 5 or 6 treated (n=6 per group). […] Tumor volumes (V) were calculated using the formula: V=(a×b2)/2, where “a” is the largest superficial diameter and “b” the smallest.

[2] = system: HCT116 human colon cancer cell line; assay: cell growth assay (trypan blue cell count) on HCT116; type: cell-based; conditions: HCT-116, 48 h, read-out: growth inhibition of the cancer cells
Experimental: (§1) The A549 and HCT-116 cells were maintained in RPMI 1640 or McCoy's 5A (Wisent, St-Bruno, QC, Canada) containing 10% FBS and 10 units/ml penicillin, 100 μg/ml streptomycin. Cells were grown in a 5% CO2 incubator at 37° C. Cells were untreated or treated with SCF compounds
(§2) A predefined number of either A549 or HCT-116 cells were allowed to grow in 24 wells plates (1×10^4 cells/well) for 3 days until cells reached 70% confluence. Then, cells were starved in RPMI or McCoy's 5A medium without FBS for 8 h. Then, the culture medium was replaced with RPMI or McCoy's 5A+0.2% FBS and 3 μM of test compounds were added to each well. Culture media were changed every 24 h and cells were treated for 48 h. After 48, the medium was removed from the culture plates and 0.05% trypsin-EDTA was used to detach the cells from the surface of the culture plates. The harvested cells were counted, both the viable and dead ones, using a Countess Automated Cell Counter (Invitrogen Inc.). Briefly, for each condition an appropriated cell dilution was prepared from the harvested cells and an aliquot was mixed with an equal volume of 0.4% trypan blue, and 10 μl was transferred into each side of a Countess™ chamber slide. All concentrations tested were performed in triplicata and were representative of 5 independent experiments.

A549 cells = assay: in vivo tumor xenograft, A549 in CD-1 nude mice; conditions: per os 618 mg/kg daily from the day after cell inoculation; vs control (corn oil)
Experimental: In vivo tumor xenograft experiments. Male and female CD-1 nude mice were obtained from Charles River Laboratories (Montreal, QC, Canada). All studies involving mice were approved by the institutional animal care committee. Human A549 or HCT-116 xenografts were established in 4-week-old CD-1 nude mice. Mice were subcutaneously inoculated with 0.2 ml of a solution of 1×10^6 A549 or HCT-116 cells on the right flank. Mice were randomly assigned into 2 groups, control (untreated) and compound 1, 5 or 6 treated (n=6 per group). Compound 1, 5 or 6 were administrated per os (618 mg/kg) daily following cell inoculation. Tumor volumes (V) were calculated using the formula: V=(a×b2)/2, where “a” is the largest superficial diameter and “b” the smallest.

[3] = system: A549 human lung cancer cell line; assay: cell growth assay (trypan blue cell count) on A549; type: cell-based; conditions: 48 h, read-out: growth inhibition of the cancer cells
Experimental: as §1, §2

relative bioavailability of compound 1 compared to compound 5 [1]: 2.20
SMILES: CC/C=C\C/C=C\C/C=C\C/C=C\C/C=C\CCCCCC(=O)OCC(O)CO (stereo not shown) [compound 1]
tumor progression (tumor volume) (HCT-116 cells): tumor progression was immediately stopped and tumor volume significantly decrease over time
inhibition at 3 µM [2]: > 50%

SMILES: CC/C=C\C/C=C\C/C=C\C/C=C\C/C=C\C/C=C\CCC(=O)OCC(O)CO (stereo not shown) [compound 5]
tumor progression (tumor volume) (A549 cells): tumor progression was significantly reduced
inhibition at 3 µM [3]: > 50%

SMILES: CC/C=C\C/C=C\C/C=C\C/C=C\C/C=C\CCCC(=O)OCC(O)CO (stereo not shown) [compound 6]
tumor progression (tumor volume) (HCT-116 cells): tumor progression was immediately stopped and tumor volume slightly decrease over time
inhibition at 3 µM [2]: > 50%
